Experimental data: PMC3023844 (Planta medica, 2010)
Read-outs that look alike come from different tables or passages of the source.

Key:
CYP3A = settings: read-out: IC50 or Ki values determined previously; CYP3A inhibitors in grapefruit juice; cited from earlier work
[1] = target: recombinant CYP3A4 (rCYP3A4) (Homo sapiens, UniProt P08684); assay: IC50 of triterpenes for midazolam 1′-hydroxylation using recombinant CYP3A4
CYP3A (intestinal) [2] = target: T1, CYP3A (intestinal) (Homo sapiens, UniProt P08684); assay: in vitro; settings: microsomes, pH 7.4, IC50, HIM as the enzyme source
CYP3A (intestinal) [3] = target: T1, CYP3A (intestinal); settings: microsomes, pH 7.4

Row | IC50 (CYP3A (intestinal) [2]) [µM] | SMILES | IC50 (CYP3A) [µM] | IC50 [1] [µM] | IC50 (CYP3A (intestinal) [3]) [µM]
1 | – | CC(=CCOc1c2ccoc2cc2oc(=O)ccc12)CCC(O)C(C)(C)O (centres unmarked) [6′,7′-dihydroxybergamottin] | 1 to 5 | – | –
2 | 8.8 ± 0.9 | C[C@H]1[C@H](C)CC[C@]2(C(=O)O)CC[C@]3(C)C(=CC[C@@H]4[C@@]5(C)C[C@@H](O)[C@H](O)C(C)(C)[C@@H]5CC[C@]43C)[C@H]12 [Corosolic acid (3), 2α,3β-dihydroxyurs-12-en-28-oic acid] | – | 4.3 ± 0.3 | –
3 | – | CC1(C)CC[C@]2(C(=O)O)CC[C@]3(C)C(=CC[C@@H]4[C@@]5(C)C[C@@H](O)[C@H](O)C(C)(C)[C@@H]5CC[C@]43C)[C@@H]2C1 [Maslinic acid (2), 2α,3β-dihydroxyolean-12-en-28-oic acid] | – | 2.8 ± 0.2 | 7.4 ± 0.5
